Results from US20060251714A1, “Pharmaceutical formulations of amyloid inhibiting compounds” (priority 2005, published 2006).

Tests used:
Format in all cases: in vivo, human
[1] = system: mild to moderate AD patients; assay: Example 11: open-label extension in AD patients, psychometric tests (ADAS-cog, CDR); conditions: for average CDR score (change): after 20 months total on study medication, reported 12-month mean change +1.4 to 2.2 points in comparable patients
Excerpt: The ADAS-cog test is described in […] Annals of Neurology 23:477-484, which is incorporated herein by reference. It is a validated scale developed specifically as a research instrument to evaluate the severity of cognitive deficits characteristic of patients with AD. This test can usually be administered to participants in less than one hour. The ADAS-cog ranges from 0 to 70 points, with higher scores indicating a greater degree of cognitive impairment. Improved performance can be measured in patients treated with formulations of the invention compared to placebo-treated patients at various time intervals. Improvement can be measured by detecting an improved score in the treated patients compared to untreated controls after 6 months, preferably 12 months, more preferably 18 months or longer. […] Patients with Alzheimer's disease typically show an annual increase in ADAS-cog scores of from about 4-9. An improvement would provide for a lessening in the increase compared to untreated controls, for example, an annual increase of less than about 5 points or 4 points, preferably 3 points, more preferably 2 points or 1 point or even a stabilization or decrease in the score.
The CDR is described in Morris, J (1993) Neurology 43: 2412-2414, which is incorporated herein by reference. Further to the discussion of the CDR test below, it is a global rating scale of dementia that is derived from ratings of impairment assigned by an independent rater in six domains, after approximately a 90-minute interview of the caregiver and participant (Hughes C P, Berg L, Danziger W L, et al. A New Clinical Scale for the Staging of Dementia. Brit. J. Psychiat 1982; 140: 566-572). The CDR scale is from 0-18 with a higher score indicating a worsening impairment. Impairment in each of the six domains is rated as “none” (O), “questionable” (0.5), “mild” (1), “moderate” (2) or “severe” (3). Improvement can be measured by detecting a lower score in the treated patients compared to controls after 6 months, preferably 12 months, more preferably 18 months or longer. […] Patients with Alzheimer's disease typically show an annual increase in CDR scores of from about 1-3. An improvement would provide for an annual increase of less than about 3 points or 2 points, preferably 1 point, more preferably 0.5 points or 0.25 points or even an improvement (reduction) in the score.
The patients from the clinical studies in Example 10 are offered 3-APS (formulation of Table 5 above) at 150 mg BID for an additional 17 months (thus, 20 months total) in an open-label study. For doses at multiples of 50 mg, multiple 50 mg tables are administered. Twenty-four mild to moderate AD patients complete the study. Psychometric tests (ADAS-cog) are performed at each visit, that is every 3 months for the first 9 months and every 4 months for the last […]. Overall, approximately 70% of the mild AD patients show stabilized or improved cognitive function tests after 20 months.

[2] = Example 8 Part I: multiple rising oral doses of NC-758 in healthy young male and elderly subjects, plasma pharmacokinetics; conditions: fasted; for AUC∞: mean, only subjects with estimable elimination rate constant
Experimental: (§1) In the following examples and elsewhere herein, terms are as defined below. The pharmacokinetic parameters were derived by non-compartmental analysis using WinNonlin® (Pharsight Corporation, Mountain View, Calif.) or SAS® for Windows® (SAS Institute Inc., Cary, N.C.).
The pharmacokinetic profile of multiple rising oral doses of 3-APS free acid (NC-758 of Table 3 above) in healthy male young subjects (18-45 years) and healthy male and female elderly (≧55 years) subjects is assessed. For doses at multiples of 100 mg, multiple 100 mg tables are administered. […] Part I is a randomized, double-blind, placebo-controlled study to assess the pharmacokinetic profile of 2 multiple rising oral doses of NC-758 in healthy young (18-45 years) male subjects. […] In Part I, 3-APS is administered as a single dose on Days 1 and 12 and on Days 2-11, twice daily at 12 hour intervals. Blood samples are collected through 24 h after the first dose on Day 1, before each morning dose on Days 2 to 11, and through 48 h after the final dose on Day 12. For Part II, blood samples are collected through 36 h. Plasma concentrations of 3-APS are determined using a validated LC-MS/MS method.

[3] = system: CSF Aβ42; assay: Example 11: additional tests, CSF Aβ42 level and Aβ42/Aβ40 ratio in treated patients
Experimental: FIG. 1 Change from Baseline CSF Aβ42 versus 3-APS doses
FIG. 2 Effect of 3-APS on CSF Aβ42/40 Ratio in Mild-to-Moderate AD Patients—Placebo vs. 150 mg BID
FIG. 3 Effect of 3-APS on CSF Aβ42/40 Ratio in Mild-to-Moderate AD Patients 0 and 50 mg 3-APS
FIG. 4 Effect of 3-APS on CSF Aβ42/40 Ratio in Mild-to-Moderate AD Patients 100 and 150 mg 3-APS

[4] = Example 7 Part II: food effect, single oral 200 mg 3-APS in young male subjects, plasma pharmacokinetics; conditions: single oral 200 mg (Table 3 formulation); for Cmax: male, po, 200 mg
Experimental: as §1
Following single oral dosing of 200 mg 3-APS (modified-release coated formulation as described in Table 3 above) to young male subjects (aged between 18 and 45 years) under fasted and fed (high fat) conditions, maximum plasma concentrations of 3-APS are attained […] post-dose under fasted and fed conditions, respectively (Table 9A).

[5] = NC-758 100 mg BID, Day 12 (repeated), young (18-45 years) male subjects, n = 6, mean
[6] = NC-758 200 mg BID, Day 1, elderly (≧55 years) male and female subjects, n = 6, mean
[7] = NC-758 200 mg BID, Day 1, young (18-45 years) male subjects, n = 6, mean
[8] = NC-758 200 mg BID, Day 12 (repeated), elderly (≧55 years) male and female subjects, n = 6, mean
[9] = NC-758 200 mg BID, Day 12 (repeated), young (18-45 years) male subjects, n = 5, mean

## NCCCS(=O)(=O)O [3-APS, 3-amino-1-propanesulfonic acid]
[1]; 150 mg BID open-label (Table 5 tablet), after 20 months
  mild AD patients showing stabilized or improved cognitive function tests: approximately 70%
[1]; mild AD patients (n=13), 150 mg BID open-label, 20 months, comparable historical controls +8.6 points
  change from baseline in average ADAS-cog score: +3.5 points
[1]; mild AD patients
  average CDR score (change): +2.36 points
[1]; mild to moderate AD patients (n=24), 150 mg BID open-label, 20 months, comparable historical controls +10.3 points
  average ADAS-cog score (change): +7.8 points
[1]; moderate AD patients
  average CDR score (change): 2.77 points
[2]; NC-758 100 mg BID, Day 1, young (18-45 years) male subjects
  AUC∞: 1017 ng·h/mL
[2]; NC-758 100 mg BID, Day 1, young (18-45 years) male subjects, n = 6, mean
  Cmax: 282 ng/mL
[2]; [5]
  AUC0-12h: 1434 ng·h/mL
  Cmax: 256 ng/mL
[2]; NC-758 200 mg BID, Day 1, elderly (≧55 years) male and female subjects
  AUC∞: 5503 ng·h/mL
[2]; [6]
  AUC0-12h: 5020 ng·h/mL
  Cmax: 897 ng/mL
[2]; NC-758 200 mg BID, Day 1, young (18-45 years) male subjects
  AUC∞: 3206 ng·h/mL
[2]; [7]
  AUC0-12h: 2865 ng·h/mL
  Cmax: 517 ng/mL
[2]; [8]
  AUC0-12h: 6287 ng·h/mL
  Cmax: 880 ng/mL
[2]; [9]
  AUC0-12h: 4152 ng·h/mL
  Cmax: 581 ng/mL
[3]; treated AD patients, FIG. 1
  CSF Aβ42 levels: reduced CSF Aβ42 levels
[3]; treated mild-to-moderate AD patients, FIGS. 2, 3 and 4
  ratio of Aβ42/Aβ40 (CSF): reduced the ratio of Aβ42/Aβ40
[4]; human, plasma, Fasting Arm, mean, only subjects with estimable elimination rate constant
  AUC(0-inf): 2400 ng·h/mL
[4]; human, plasma, Fed Arm (high fat), n = 8, mean, read-out: AUC0-Tlast
  AUC(0-t): 3870 ng·h/mL
[4]; human, plasma, Fed Arm (high fat), n = 8, median
  Tmax: 13.5 h
[4]; human, plasma, Fasting Arm, n = 8, mean
  Cmax: 594 ng/mL
[4]; human, plasma, Fed Arm (high fat), n = 8, mean
  Cmax: 631 ng/mL
[4]; Fasting Arm, n = 8, mean
  AUC0-Tlast: 2196 ng·h/mL
[4]; Fed Arm (high fat), mean, only subjects with estimable elimination rate constant
  AUC∞: 4497 ng·h/mL
